Assay results from US12552783B2, “Modulators of proteolysis and associated methods of use” (Arvinas Operations, Inc., priority 2018, dated 2026).

Target: KRas (Homo sapiens, UniProt P01116, G12C)
Assay: KRas degradation in NCI-H2030 cells by Western blot, normalized to GAPDH (data of Table 14)
Type: cell-based
Design: host or cells: NCI-H2030
Settings: for Dmax: NCI-H2030; for Percent Degradation at Indicated Concentration (μM): H2030
In short: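 Cells serum-starved 24 h, then treated at 0.3, 1 and 3 μM in 0.1% DMSO, 24 h for VHL-based compounds and 72 h for others. Lysates (10 μg protein) immunoblotted; KRas normalized to GAPDH, degradation visually estimated below 25% or quantified versus DMSO lane, giving DC50 and DMax.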

Percent Degradation at Indicated Concentration (μM): 0.1 (H2030 cells, 0.1 μM)	Percent Degradation at Indicated Concentration (μM): 0.3 (H2030 cells, 0.3 μM)	Percent Degradation at Indicated Concentration (μM): 1 (H2030 cells, 1 μM)	Dmax (H2030 cells) [%]	Percent Degradation at Indicated Concentration (μM): 3 (H2030 cells, 3 μM)	Percent Degradation at Indicated Concentration (μM) (0.3 μM)	Percent Degradation at Indicated Concentration (μM) (1 μM)	Percent Degradation at Indicated Concentration (μM) (3 μM)	Dmax [%]	SMILES
C (C ≤ 35)	C (C ≤ 35)	C (C ≤ 35)	≤ 35						C=CC(=O)N1CCN(c2nc(NCCC(=O)N(C)CCOCCOCCOCCOCCOc3ccc4c(c3)C(=O)N(C3CCC(=O)NC3=O)C4=O)nc3c(F)c(-c4cc(O)cc5ccccc45)c(Cl)cc23)CC1 (stereo not shown) [compound 63, 3-((4-(4-acryloylpiperazin-1-yl)-6-chloro-8-fluoro-7-(3-hydroxynaphthalen-1-yl)quinazolin-2-yl)amino)-N-(14-((2-(2,6-dioxopiperidin-3-yl)-1,3-dioxoisoindolin-5-yl)oxy)-3,6,9,12-tetraoxatetradecyl)-N-methylpropanamide]
	C (C ≤ 35)	C (C ≤ 35)	≤ 35	C (C ≤ 35)					C=CC(=O)N1CCN(c2nc(NCCC(=O)N(C)CCOc3ccc4c(c3)CN(C3CCC(=O)NC3=O)C4=O)nc3c(F)c(-c4cc(O)cc5ccccc45)c(Cl)cc23)CC1 (stereo not shown) [compound 64, 3-((4-(4-acryloylpiperazin-1-yl)-6-chloro-8-fluoro-7-(3-hydroxynaphthalen-1-yl)quinazolin-2-yl)amino)-N-(2-((2-(2,6-dioxopiperidin-3-yl)-1-oxoisoindolin-5-yl)oxy)ethyl)-N-methylpropanamide]
	C (C ≤ 35)	C (C ≤ 35)	≤ 35	C (C ≤ 35)					C=CC(=O)N1CCN(c2nc(NCCC(=O)N(C)CCOCCOc3ccc4c(c3)CN(C3CCC(=O)NC3=O)C4=O)nc3c(F)c(-c4cc(O)cc5ccccc45)c(Cl)cc23)CC1 (stereo not shown) [compound 65, 3-((4-(4-acryloylpiperazin-1-yl)-6-chloro-8-fluoro-7-(3-hydroxynaphthalen-1-yl)quinazolin-2-yl)amino)-N-(2-(2-((2-(2,6-dioxopiperidin-3-yl)-1-oxoisoindolin-5-yl)oxy)ethoxy)ethyl)-N-methylpropanamide]
	C (C ≤ 35)	C (C ≤ 35)	≤ 35	C (C ≤ 35)					C=CC(=O)N1CCN(c2nc(NCCC(=O)N(C)CCOCCOCCOc3ccc4c(c3)CN(C3CCC(=O)NC3=O)C4=O)nc3c(F)c(-c4cc(O)cc5ccccc45)c(Cl)cc23)CC1 (stereo not shown) [compound 66, 3-((4-(4-acryloylpiperazin-1-yl)-6-chloro-8-fluoro-7-(3-hydroxynaphthalen-1-yl)quinazolin-2-yl)amino)-N-(2-(2-(2-((2-(2,6-dioxopiperidin-3-yl)-1-oxoisoindolin-5-yl)oxy)ethoxy)ethoxy)ethyl)-N-methylpropanamide]
	C (C ≤ 35)	C (C ≤ 35)	≤ 35	C (C ≤ 35)					C=CC(=O)N1CCN(c2nc(NCCC(=O)N(C)CCOCCOCCOCCOc3ccc4c(c3)CN(C3CCC(=O)NC3=O)C4=O)nc3c(F)c(-c4cc(O)cc5ccccc45)c(Cl)cc23)CC1 (stereo not shown) [compound 67, 3-((4-(4-acryloylpiperazin-1-yl)-6-chloro-8-fluoro-7-(3-hydroxynaphthalen-1-yl)quinazolin-2-yl)amino)-N-(2-(2-(2-(2-((2-(2,6-dioxopiperidin-3-yl)-1-oxoisoindolin-5-yl)oxy)ethoxy)ethoxy)ethoxy)ethyl)-N-methylpropanamide]
					C (Percent Degradation: C ≤ 35)	C (Percent Degradation: C ≤ 35)	C (Percent Degradation: C ≤ 35)	≤ 35	C=CC(=O)N1CCN(c2nc(NCCC(=O)N(C)CCOCCOCCOCCOCCOc3ccc4c(c3)CN(C3CCC(=O)NC3=O)C4=O)nc3c(F)c(-c4cc(O)cc5ccccc45)c(Cl)cc23)CC1 (stereo not shown) [compound 68, 3-((4-(4-acryloylpiperazin-1-yl)-6-chloro-8-fluoro-7-(3-hydroxynaphthalen-1-yl)quinazolin-2-yl)amino)-N-(14-((2-(2,6-dioxopiperidin-3-yl)-1-oxoisoindolin-5-yl)oxy)-3,6,9,12-tetraoxatetradecyl)-N-methylpropanamide]
					C (Percent Degradation: C ≤ 35)	C (Percent Degradation: C ≤ 35)	C (Percent Degradation: C ≤ 35)	≤ 35	C=CC(=O)N1CCN(c2nc(NCCC(=O)N(C)CCOCCOc3ccc4c(c3)C(=O)N(C3CCC(=O)NC3=O)C4=O)nc3c(F)c(-c4c(O)cccc4F)c(Cl)cc23)CC1 [compound 69, 3-(((S)-4-(4-acryloylpiperazin-1-yl)-6-chloro-8-fluoro-7-(2-fluoro-6-hydroxyphenyl)quinazolin-2-yl)amino)-N-(2-(2-((2-(2,6-dioxopiperidin-3-yl)-1,3-dioxoisoindolin-5-yl)oxy)ethoxy)ethyl)-N-methylpropanamide]
					C (Percent Degradation: C ≤ 35)	C (Percent Degradation: C ≤ 35)	C (Percent Degradation: C ≤ 35)	≤ 35	C=CC(=O)N1CCN(c2nc(NCCC(=O)N(C)CCOCCOCCOCCOc3ccc4c(c3)C(=O)N(C3CCC(=O)NC3=O)C4=O)nc3c(F)c(-c4c(O)cccc4F)c(Cl)cc23)CC1 [compound 73, 3-(((S)-4-(4-acryloylpiperazin-1-yl)-6-chloro-8-fluoro-7-(2-fluoro-6-hydroxyphenyl)quinazolin-2-yl)amino)-N-(2-(2-(2-(2-((2-(2,6-dioxopiperidin-3-yl)-1,3-dioxoisoindolin-5-yl)oxy)ethoxy)ethoxy)ethoxy)ethyl)-N-methylpropanamide]
					C (Percent Degradation: C ≤ 35)	C (Percent Degradation: C ≤ 35)	C (Percent Degradation: C ≤ 35)	≤ 35	C=CC(=O)N1CCN(c2nc(NCCC(=O)N(C)CCOCCOCCOCCOCCOc3ccc4c(c3)C(=O)N(C3CCC(=O)NC3=O)C4=O)nc3c(F)c(-c4c(O)cccc4F)c(Cl)cc23)CC1 [compound 75, 3-(((S)-4-(4-acryloylpiperazin-1-yl)-6-chloro-8-fluoro-7-(2-fluoro-6-hydroxyphenyl)quinazolin-2-yl)amino)-N-(14-((2-(2,6-dioxopiperidin-3-yl)-1,3-dioxoisoindolin-5-yl)oxy)-3,6,9,12-tetraoxatetradecyl)-N-methylpropanamide]
					C (Percent Degradation: C ≤ 35)	C (Percent Degradation: C ≤ 35)	C (Percent Degradation: C ≤ 35)	≤ 35	C=CC(=O)N1CCN(c2nc(NCCC(=O)N(C)CCOCCOc3ccc4c(c3)CN(C3CCC(=O)NC3=O)C4=O)nc3c(F)c(-c4c(O)cccc4F)c(Cl)cc23)CC1 [compound 89, 3-((4-(4-acryloylpiperazin-1-yl)-6-chloro-8-fluoro-7-((S)-2-fluoro-6-hydroxyphenyl)quinazolin-2-yl)amino)-N-(2-(2-((2-(2,6-dioxopiperidin-3-yl)-1-oxoisoindolin-5-yl)oxy)ethoxy)ethyl)-N-methylpropanamide]
					C (Percent Degradation: C ≤ 35)	C (Percent Degradation: C ≤ 35)	C (Percent Degradation: C ≤ 35)	≤ 35	C=CC(=O)N1CCN(c2nc(NCCC(=O)N(C)CCOCCOCCOCCOc3ccc4c(c3)CN(C3CCC(=O)NC3=O)C4=O)nc3c(F)c(-c4c(O)cccc4F)c(Cl)cc23)CC1 [compound 93, 3-((4-(4-acryloylpiperazin-1-yl)-6-chloro-8-fluoro-7-((S)-2-fluoro-6-hydroxyphenyl)quinazolin-2-yl)amino)-N-(2-(2-(2-(2-((2-(2,6-dioxopiperidin-3-yl)-1-oxoisoindolin-5-yl)oxy)ethoxy)ethoxy)ethoxy)ethyl)-N-methylpropanamide]
					C (Percent Degradation: C ≤ 35)	C (Percent Degradation: C ≤ 35)	C (Percent Degradation: C ≤ 35)	≤ 35	C=CC(=O)N1CCN(c2nc(NCCC(=O)N(C)CCOCCOCCOCCOCCOc3ccc4c(c3)CN(C3CCC(=O)NC3=O)C4=O)nc3c(F)c(-c4c(O)cccc4F)c(Cl)cc23)CC1 [compound 95, 3-(((S)-4-(4-acryloylpiperazin-1-yl)-6-chloro-8-fluoro-7-(2-fluoro-6-hydroxyphenyl)quinazolin-2-yl)amino)-N-(14-((2-(2,6-dioxopiperidin-3-yl)-1-oxoisoindolin-5-yl)oxy)-3,6,9,12-tetraoxatetradecyl)-N-methylpropanamide]
							C (Percent Degradation: C ≤ 35)		C=CC(=O)N1CCN(c2nc(NCCC(=O)N(C)CCNc3cccc4c3C(=O)N(C3CCC(=O)NC3=O)C4=O)nc3c(F)c(-c4c(O)cccc4F)c(Cl)cc23)CC1 [compound 107, 3-(((S)-4-(4-acryloylpiperazin-1-yl)-6-chloro-8-fluoro-7-(2-fluoro-6-hydroxyphenyl)quinazolin-2-yl)amino)-N-(2-((2-(2,6-dioxopiperidin-3-yl)-1,3-dioxoisoindolin-4-yl)amino)ethyl)-N-methylpropanamide]
